{"source": "paper PMC10120551", "about": "“Novel Glu-based pyrazolo[3,4-d]pyrimidine analogues: design, synthesis and biological evaluation as DHFR and TS dual inhibitors” (Journal of Enzyme Inhibition and Medicinal Chemistry, 2023)", "key": {"OVCAR-3 (Ovarian Cancer)": {"test_system": "OVCAR-3 (Ovarian Cancer)", "experiment": "MTT cytotoxicity assay", "format": "cell-based, human", "conditions": "for IC50: OVCAR-3, MTT, 48 h, mean ± SD from triplicates", "procedure": "(§1) The MTT assay was carried out according to the procedure cited earlier. Briefly, in a 96-well plate, either cancer or normal cells were seeded (10^6 cells/cm^2; 100 µL/well) and incubated for 12 h at 37 °C and CO2 (5%), then serial dilutions of compound 6i were added and incubated for 48 h using DMSO control (0.5% V/V). MTT (3-(4,5-dimethylthiazoyl)-2,5-diphenyl-tetrazolium bromide; Cat. No. M-5655) 5 mg/mL was then added. After 4 h incubation, the formed MTT formazan crystals were solubilised by 10% Triton X-100 plus 0.1 N HCl in anhydrous isopropanol. The absorbance was read using a Bioline plate reader at λ570–630 nm[25–29]. The selectivity of 6i towards HSF cells was also determined as follows[30]^,[31]: SI=IC50HSF cells/IC50of cancer cells"}, "PC-3 (Prostate cancer)": {"test_system": "PC-3 (Prostate cancer)", "experiment": "MTT cytotoxicity assay", "format": "cell-based, human", "procedure": "as §1"}, "RXF 393 [1]": {"test_system": "RXF 393", "experiment": "cells", "conditions": "Homo sapiens"}, "UACC-62": {"test_system": "UACC-62", "conditions": "UACC-62, Melanoma; five-dose 0.01–100 µM"}, "OVCAR-4": {"test_system": "OVCAR-4", "experiment": "cells", "conditions": "Homo sapiens"}, "EKVX": {"test_system": "EKVX", "experiment": "cells", "conditions": "Homo sapiens"}, "HCT-116": {"test_system": "HCT-116", "conditions": "HCT-116, Colon cancer; five-dose 0.01–100 µM"}, "T-47D": {"test_system": "T-47D", "experiment": "cells", "conditions": "Homo sapiens, T47D"}, "HS 578 T": {"test_system": "HS 578 T", "experiment": "cells", "conditions": "Homo sapiens"}, "RXF 393 [2]": {"test_system": "RXF 393", "conditions": "RXF 393, Renal cancer; five-dose 0.01–100 µM"}, "[3]": {"test_system": "full panel of 59 cancer cells", "experiment": "NCI one-dose screen (SRB), full panel", "format": "cell-based, human", "conditions": "Homo sapiens; mean over full panel of 59 cell lines; 10 µM single dose; read-out: MGI% (mean growth inhibition percentage)", "procedure": "The growth percentage (G%) and cell viability of the herein target compounds 6a–l, 7a,b, and 9a–c have been screened towards a full panel of 59 cancer cells at NCI’s Developmental Therapeutics Program (NCI-DTP, MD, USA)[21]. The submitted analogues were initially examined for preliminary in vitro anticancer activity using sulforhodamine B (SRB) assay at 10 µM as a single dose to evaluate cell growth and viability according to the procedure of Drug Evaluation Branch[22]^,[23].\nDifferent types of tumours – colon, NSCLC, leukaemia, CNS, renal, breast, ovarian, melanoma, and prostate cancers – were investigated as a full panel of 59 cell lines, and the attained results are cited in Figures S1–S17 (see Supplementary Material) where the value recorded is the growth relative to that of both the negative control and zero-time number of cells in which both growth inhibition (GI%; 0–100%) and lethality (L%; 0–100%) percentages can be identified. The growth inhibition means percentages (MGI%) for the examined target analogues towards the different treated 59 cancer cells were presented in Figure 2.\n(§2) The designed analogues were submitted to NCI-Chemotherapeutic Agents Repository (MD, USA) for screening on a panel of 59 cancer cell lines. All compounds were initially examined at 10 µM concentration (Single-Dose Screen), and then the most efficient analogue 6i was screened further at 0.01–100 µM (Five-Dose Screen). The screening procedures were performed according to NCI-Drug Evaluation Branch protocol using SRB protein assay, as described previously[21]^,[66]. The experimental procedures were detailed in the Supporting Information."}, "CCRF-CEM": {"test_system": "CCRF-CEM", "experiment": "cells", "conditions": "Homo sapiens"}, "Ovarian cancer subpanel": {"test_system": "Ovarian cancer subpanel", "experiment": "NCI five-dose screen, subpanel MG-MID", "format": "cell-based, human", "procedure": "(§3) (Figures S53–S56 in Supporting Information). This assay evaluates GI50, TGI, and LC50 parameters, as cited in Table 1. Their values correspondingly represent the GI level, cytostatic impact, and cytotoxicity parameter. Furthermore, based on the GI50 values, the mean graph midpoints (MG-MID) for both full NCI 59 cell panel and subpanel cancer cell lines were evaluated, affording a median potency parameter for the examined compound 6i, as depicted in Table 2.\n(§4) Moreover, the selectivity index (SI) of the most efficient analogue 6i was calculated from the division of full-panel MG-MID by subpanel MG-MID. A value greater than 6 implies high selectivity, whereas a ratio from 3 to 6 denotes moderate selectivity. Otherwise, the compound is referred to as non-selective.[24] […] Therefore, the outstanding anti-cancer profile of compound 6i against the herein examined NCI-59 cell panels inspired us to explore its mechanism of action further.\nas §2"}, "Breast cancer subpanel": {"test_system": "Breast cancer subpanel", "experiment": "NCI five-dose screen, subpanel MG-MID", "format": "cell-based, human", "procedure": "as §3, §4, §2"}, "Melanoma subpanel": {"test_system": "Melanoma subpanel", "experiment": "NCI five-dose screen, subpanel MG-MID", "format": "cell-based, human", "procedure": "as §3, §4, §2"}, "Leukaemia subpanel": {"test_system": "Leukaemia subpanel", "experiment": "NCI five-dose screen, subpanel MG-MID", "format": "cell-based, human", "procedure": "as §3, §4, §2"}, "Colon cancer subpanel": {"test_system": "Colon cancer subpanel", "experiment": "NCI five-dose screen, subpanel MG-MID", "format": "cell-based, human", "procedure": "as §3, §4, §2"}, "Prostate cancer subpanel": {"test_system": "Prostate cancer subpanel", "experiment": "NCI five-dose screen, subpanel MG-MID", "format": "cell-based, human", "procedure": "as §3, §4, §2"}, "[4]": {"test_system": "Non-small cell lung cancer subpanel", "experiment": "NCI five-dose screen, subpanel MG-MID", "format": "cell-based, human", "procedure": "as §3, §4, §2"}, "CNS cancer subpanel": {"test_system": "CNS cancer subpanel", "experiment": "NCI five-dose screen, subpanel MG-MID", "format": "cell-based, human", "procedure": "as §3, §4, §2"}}}
{"smiles": "CCOC(=O)CC[C@H](NC(=O)c1ccc(NC(=O)Cn2cnc3c(c(C)nn3-c3ccc(Br)cc3)c2=O)cc1)C(=O)OCC", "note": "[Compound 6i]", "values": [{"measurement": "IC50", "setting": "OVCAR-3 (Ovarian Cancer); Homo sapiens, OVCAR-3, 48 h", "result": 11.5, "unit": "µM"}, {"measurement": "Selectivity index", "setting": "OVCAR-3 (Ovarian Cancer); IC50 HSF cells / IC50 OVCAR-3", "result": 4.21}, {"measurement": "IC50", "setting": "OVCAR-3 (Ovarian Cancer)", "result": "11.5 ± 0.58", "unit": "µM"}, {"measurement": "IC50", "setting": "PC-3 (Prostate cancer); Homo sapiens, PC-3, MTT, 48 h, mean ± SD from triplicates", "result": "12.4 ± 0.62", "unit": "µM"}, {"measurement": "Selectivity index", "setting": "PC-3 (Prostate cancer); IC50 HSF cells / IC50 PC-3", "result": 3.91}, {"measurement": "GI50", "setting": "RXF 393 [1]; RXF 393", "result": 15.9, "unit": "µM"}, {"measurement": "CC50", "setting": "RXF 393 [1]; RXF 393, read-out: LC50", "result": "> 100", "unit": "µM"}, {"measurement": "TGI", "setting": "UACC-62", "result": 32.1, "unit": "µM"}, {"measurement": "GI50", "setting": "OVCAR-4; OVCAR-4", "result": 13.4, "unit": "µM"}, {"measurement": "CC50", "setting": "OVCAR-4; OVCAR-4, read-out: LC50", "result": 76.7, "unit": "µM"}, {"measurement": "GI50", "setting": "EKVX", "result": 10.4, "unit": "µM"}, {"measurement": "CC50", "setting": "EKVX; read-out: LC50", "result": 71.7, "unit": "µM"}, {"measurement": "TGI", "setting": "HCT-116", "result": ">100", "unit": "µM"}, {"measurement": "GI50", "setting": "T-47D", "result": 45.6, "unit": "µM"}, {"measurement": "CC50", "setting": "T-47D; read-out: LC50", "result": "> 100", "unit": "µM"}, {"measurement": "GI50", "setting": "HS 578 T", "result": 12.7, "unit": "µM"}, {"measurement": "CC50", "setting": "HS 578 T; read-out: LC50", "result": "> 100", "unit": "µM"}, {"measurement": "TGI", "setting": "RXF 393 [2]", "result": 50.9, "unit": "µM"}, {"measurement": "inhibition at 10 µM", "setting": "[3]", "result": 62, "unit": "%"}, {"measurement": "GI50", "setting": "CCRF-CEM", "result": 14.5, "unit": "µM"}, {"measurement": "CC50", "setting": "CCRF-CEM; read-out: LC50", "result": "> 100", "unit": "µM"}, {"measurement": "MG-MID", "setting": "Ovarian cancer subpanel; Ovarian cancer subpanel, based on GI50", "result": 16.52, "unit": "µM"}, {"measurement": "Selectivity index", "setting": "Ovarian cancer subpanel; Ovarian cancer, full-panel MG-MID / subpanel MG-MID", "result": 1.23}, {"measurement": "MG-MID", "setting": "Breast cancer subpanel; Breast cancer subpanel, based on GI50", "result": 15.29, "unit": "µM"}, {"measurement": "Selectivity index", "setting": "Breast cancer subpanel; Breast cancer, full-panel MG-MID / subpanel MG-MID", "result": 1.33}, {"measurement": "MG-MID", "setting": "Melanoma subpanel; Melanoma subpanel, based on GI50", "result": 16.8, "unit": "µM"}, {"measurement": "Selectivity index", "setting": "Melanoma subpanel; Melanoma, full-panel MG-MID / subpanel MG-MID", "result": 1.21}, {"measurement": "MG-MID", "setting": "Leukaemia subpanel; Leukaemia subpanel, based on GI50", "result": 68.03, "unit": "µM"}, {"measurement": "Selectivity index", "setting": "Leukaemia subpanel; Leukaemia, full-panel MG-MID / subpanel MG-MID", "result": 0.30}, {"measurement": "MG-MID", "setting": "Colon cancer subpanel; Colon cancer subpanel, based on GI50", "result": 18.34, "unit": "µM"}, {"measurement": "Selectivity index", "setting": "Colon cancer subpanel; Colon cancer, full-panel MG-MID / subpanel MG-MID", "result": 1.11}, {"measurement": "MG-MID", "setting": "Prostate cancer subpanel; Prostate cancer subpanel, based on GI50", "result": 6.63, "unit": "µM"}, {"measurement": "Selectivity index", "setting": "Prostate cancer subpanel; Prostate cancer, full-panel MG-MID / subpanel MG-MID", "result": 3.08}, {"measurement": "MG-MID", "setting": "[4]; Non-small cell lung cancer subpanel, based on GI50", "result": 10.62, "unit": "µM"}, {"measurement": "Selectivity index", "setting": "[4]; Non-small cell lung cancer, full-panel MG-MID / subpanel MG-MID", "result": 1.92}, {"measurement": "MG-MID", "setting": "CNS cancer subpanel; CNS cancer subpanel, based on GI50", "result": 12.70, "unit": "µM"}, {"measurement": "Selectivity index", "setting": "CNS cancer subpanel; CNS cancer, full-panel MG-MID / subpanel MG-MID", "result": 1.61}]}
